In US8168860B2, “Compositions and methods for the modification of physiological responses in plants” (Rohm and Haas Company, priority 2007, dated 2012):

Key:
ACC oxidase = ACC oxidase expression in excised corn stalk sheath tissue, quantitative PCR; format: cell-based; details: for ACC Oxidase Expression (relative): normalized to 0 inducer/0 ACC; for AVG ACO Expression: average of corn lines
Protocol: Corn plants were transformed using the plasmids for Example 1 by microparticle bombardment. Putative transformants were selected using either actinonin or bialaphos and confirmed by PCR analysis. Positive transformants were backcrossed to inbred B73 to increase vigor. Transgenic corn plants produced as described above were tested for modulation of ethylene sensitivity. Modulation of ethylene sensitivity was determined at the molecular level by exposing plants to ethylene and measuring the change in induction of ethylene-induced genes.
Transgenic corn plants produced as described above were tested for modulation of ethylene sensitivity. Modulation of ethylene sensitivity was determined at the molecular level by exposing plants to ACC, the precursor of ethylene and measuring the change in induction of ethylene-induced genes. Stalk sheath tissue was excised from transgenic T0 corn plants growing in a green house and used in an in vitro bioassay. Excised tissue was treated with either water or 20 μM inducer for 2 days to induce expression of the ethylene insensitive etr1-1 transgene. Following the 2 day induction period, the tissue was treated for one day with 0, 1 or 10 μM ACC to produce ethylene and then harvested. Harvested tissue was immediately placed in RNAlater (Ambion). Total RNA was prepared from the tissue using MagMAX-96 Total RNA Isolation Kit (Ambion). Induction of an ethylene inducible gene (ACC oxidase) was measured using quantitative PCR on an Applied Biosystems 7900 HT Fast Real-Time PCR system (ABI). TaqMan Assay Kit (ABI) was used for reverse transcriptase (RT) and PCR using manufacturer recommended protocols. Corn 18s was used as an internal control to normalize expression for each sample.
Sequences for the primers and probes were as follows: […]
In order to determine gene expression, ACC oxidase expression in the 0 μM inducer plus 0 μM ACC control treatment was normalized for each respective corn line.

[1] = tested on: tomato seedlings (WT, p1002-18, p1003-16); assay: Tomato seedling growth on 20 μM inducer and various levels of ACC; format: in vivo; details: 20 μM inducer; for Hypocotyl (mm) / Root (mm): 14 day old seedlings

CCC(N(NC(=O)c1ccc2c(c1C)O[C@@H](CO)CO2)C(=O)c1cc(C)cc(C)c1)C(C)(C)C (stereo partly drawn) [inducer, 3,5 Dimethyl-benzoic acid N-(1-ethyl-2,2-dimethyl-propyl)-N′-(3S-hydroxymethyl-5-methyl-2,3-dihydro-benzo[1,4]dioxine-6-carbonyl)hydrazide]
ACC Oxidase Expression (relative) (ACC oxidase; Corn Line 10.2, 20 μM inducer/1 μM ACC): 0.4928 | ACC Oxidase Expression (relative) (ACC oxidase; Corn Line 10.2, 20 μM inducer/10 μM ACC): 0.6761 | ACC Oxidase Expression (relative) (ACC oxidase; Corn Line 10.4, 20 μM inducer/0 ACC): 0.3437 | ACC Oxidase Expression (relative) (ACC oxidase; Corn Line 10.4, 20 μM inducer/1 μM ACC): 0.3591 | ACC Oxidase Expression (relative) (ACC oxidase; Corn Line 10.4, 20 μM inducer/10 μM ACC): 1.821 | ACC Oxidase Expression (relative) (ACC oxidase; Corn Line 10.5, 20 μM inducer/0 ACC): 0.6804 | ACC Oxidase Expression (relative) (ACC oxidase; Corn Line 10.5, 20 μM inducer/1 μM ACC): 0.06813 | ACC Oxidase Expression (relative) (ACC oxidase; Corn Line 10.5, 20 μM inducer/10 μM ACC): 0.1983 | ACC Oxidase Expression (relative) (ACC oxidase; Corn Line B73, 20 μM inducer/0 ACC): 1.964 | ACC Oxidase Expression (relative) (ACC oxidase; Corn Line B73, 20 μM inducer/1 μM ACC): 0.09506 | ACC Oxidase Expression (relative) (ACC oxidase; Corn Line B73, 20 μM inducer/10 μM ACC): 0.2589 | AVG ACO Expression (ACC oxidase; 20 μM inducer/0 ACC): 1.087 | AVG ACO Expression (ACC oxidase; 20 μM inducer/1 μM ACC): 0.6061 | AVG ACO Expression (ACC oxidase; 20 μM inducer/10 μM ACC): 0.5662 | average expression of ACC oxidase in the transgenic corn lines (ACC oxidase; presence of inducer plus ACC): repressed | ethylene insensitivity, based on decreased expression of ethylene inducible genes (ACC oxidase; transgenic corn with etr1-1 cassettes, presence of inducing compound, exposed to ethylene): demonstrated ethylene insensitivity | Hypocotyl (mm) ([1]; WT tomato, 5 μM Ag): 41.4 ± 8.20 mm | Root (mm) ([1]; WT tomato, 5 μM Ag): 22.3 ± 5.66 mm | Hypocotyl (mm) ([1]; WT tomato, ACC 0 μM): 36.4 ± 9.44 mm | Root (mm) ([1]; WT tomato, ACC 0 μM): 28.8 ± 6.26 mm | Hypocotyl (mm) ([1]; WT tomato, ACC 1 μM): 25.9 ± 12.7 mm | Root (mm) ([1]; WT tomato, ACC 1 μM): 14.4 ± 9.42 mm | Hypocotyl (mm) ([1]; WT tomato, ACC 2.5 μM): 11.3 ± 6.25 mm | Root (mm) ([1]; WT tomato, ACC 2.5 μM): 12.3 ± 9.41 mm | Hypocotyl (mm) ([1]; WT tomato, ACC 5 μM): 8.50 ± 4.35 mm | Root (mm) ([1]; WT tomato, ACC 5 μM): 10.4 ± 8.73 mm | Hypocotyl (mm) ([1]; WT tomato, ACC 10 μM): 7.71 ± 1.20 mm | Root (mm) ([1]; WT tomato, ACC 10 μM): 13.1 ± 10.8 mm | Hypocotyl (mm) ([1]; WT tomato, ACC 20 μM): 3.21 ± 1.19 mm | Root (mm) ([1]; WT tomato, ACC 20 μM): 11.2 ± 9.40 mm | Hypocotyl (mm) ([1]; p1002-18 tomato, 5 μM Ag): 38.2 ± 6.85 mm | Root (mm) ([1]; p1002-18 tomato, 5 μM Ag): 31.6 ± 5.68 mm | Hypocotyl (mm) ([1]; p1002-18 tomato, ACC 0 μM): 40.7 ± 9.50 mm | Root (mm) ([1]; p1002-18 tomato, ACC 0 μM): 30.9 ± 7.14 mm | Hypocotyl (mm) ([1]; p1002-18 tomato, ACC 1 μM): 28.4 ± 18.0 mm | Root (mm) ([1]; p1002-18 tomato, ACC 1 μM): 24.7 ± 7.53 mm | Hypocotyl (mm) ([1]; p1002-18 tomato, ACC 2.5 μM): 29.4 ± 15.0 mm | Root (mm) ([1]; p1002-18 tomato, ACC 2.5 μM): 25.8 ± 8.50 mm | Hypocotyl (mm) ([1]; p1002-18 tomato, ACC 5 μM): 27.3 ± 9.03 mm | Root (mm) ([1]; p1002-18 tomato, ACC 5 μM): 24.0 ± 7.77 mm | Hypocotyl (mm) ([1]; p1002-18 tomato, ACC 10 μM): 28.0 ± 14.1 mm | Root (mm) ([1]; p1002-18 tomato, ACC 10 μM): 24.8 ± 6.03 mm | Hypocotyl (mm) ([1]; p1002-18 tomato, ACC 20 μM): 26.5 ± 15.1 mm | Root (mm) ([1]; p1002-18 tomato, ACC 20 μM): 24.1 ± 3.98 mm | Hypocotyl (mm) ([1]; p1003-16 tomato, 5 μM Ag): 36.3 ± 9.08 mm | Root (mm) ([1]; p1003-16 tomato, 5 μM Ag): 23.8 ± 4.92 mm | Hypocotyl (mm) ([1]; p1003-16 tomato, ACC 0 μM): 39.8 ± 17.1 mm | Root (mm) ([1]; p1003-16 tomato, ACC 0 μM): 18.7 ± 3.94 mm | Hypocotyl (mm) ([1]; p1003-16 tomato, ACC 1 μM): 39.3 ± 11.0 mm | Root (mm) ([1]; p1003-16 tomato, ACC 1 μM): 18.2 ± 716 mm | Hypocotyl (mm) ([1]; p1003-16 tomato, ACC 2.5 μM): 38.9 ± 18.2 mm | Root (mm) ([1]; p1003-16 tomato, ACC 2.5 μM): 12.9 ± 8.61 mm | Hypocotyl (mm) ([1]; p1003-16 tomato, ACC 5 μM): 33.0 ± 15.2 mm | Root (mm) ([1]; p1003-16 tomato, ACC 5 μM): 12.9 ± 9.36 mm | Hypocotyl (mm) ([1]; p1003-16 tomato, ACC 10 μM): 29.7 ± 18.8 mm | Root (mm) ([1]; p1003-16 tomato, ACC 10 μM): 12.7 ± 12.1 mm | Hypocotyl (mm) ([1]; p1003-16 tomato, ACC 20 μM): 24.3 ± 15.2 mm | Root (mm) ([1]; p1003-16 tomato, ACC 20 μM): 13.0 ± 7.92 mm | induction of ethylene insensitivity over ACC concentrations ([1]; tomato p1002 and p1003 line, ACC 1.0-20 μM): induction of ethylene insensitivity occurred across the range of ACC concentrations tested
